Experiment in all cases: Antibacterial activity (MIC), agar dilution per CLSI
Format in all cases: cell-based
For orientation: In agar dilution the substance is mixed into plates at graded concentrations.

One assay deals with E. coli M 50. As to conditions: E. coli M 50 expressing ESBL, agar dilution. The protocol: (§1) The biological activity of representative compounds according to the invention against various bacterial strains was investigated. In a typical study, overnight grown bacterial cultures were diluted appropriately and inoculated on the agar media containing doubling dilutions of the test compounds. Observation for growth or no growth was performed after 16-20 hours of incubation at 35±2° C. in ambient air. The overall procedure was performed as per Clinical and Laboratory Standards Institute (CLSI) recommendations (Clinical and Laboratory Standards Institute (CLSI), Performance Standards for Antimicrobial Susceptibility Testing, 20th Informational Supplement, M 100-S20, Volume 30, No. 1, 2010).
The activities are expressed as MICs (mcg/ml).

Another assay has as its system E. coli NCTC 13351. The conditions noted are these: 16-20 hours, 35±2° C. The protocol: as §1
(§2) Table 3 details antibacterial activity of representative compounds according to the invention against various E. coli strains (NCTC 13351, M 50 and 7 MP) expressing ESBL (Extended Spectrum Beta Lactamases).

The test system of a further assay is E. coli 7 MP. As to conditions: Table 3, E. coli 7 MP expressing ESBL. The protocol: as §1, §2
The mark [1] stands for this setting: Escherichia coli, M50, Table 3, read-out: MIC.
Where [2] appears, read: Escherichia coli, NCTC13351, Table 3, E. coli NCTC 13351 expressing ESBL, read-out: MIC.
The mark [3] stands for this setting: Escherichia coli, read-out: MIC.
The mark [4] stands for this setting: Table 3, E. coli NCTC 13351 expressing ESBL.

Consider 21 compounds from patent US9381200B2, “Nitrogen containing compounds” (WOCKHARDT LIMITED, priority 2011, dated 2016).

≈ marks a conversion by molar mass, not a printed value. Where two headings read alike, the source gives them in different places.

The term MIC denotes the lowest concentration that inhibits growth of the organism.

Turning to `O=C(NNC(=O)[C@H]1CC[C@@H]2CN1C(=O)N2OS(=O)(=O)O)[C@H]1CCCNC1` (mixture of isomers) [Example 15, trans-sulfuric acid mono-[2-(N′—((S)-piperidin-3-carbonyl)-hydrazinocarbonyl)-7-oxo-1,6-diaza-bicyclo[3.2.1]oct-6-yl]ester], the minimum inhibitory concentration (MIC) in the assay with E. coli M 50 (setting [1]) came out at 4 µg/mL; in the assay on E. coli NCTC 13351 (setting [2]) it was 8 µg/mL; in the assay with E. coli 7 MP (setting [3]), 16 µg/mL.
With `O=C(NNC(=O)N1CCCC1)[C@H]1CC[C@@H]2CN1C(=O)N2OS(=O)(=O)O` (relative stereo) [Example 29, trans-sulfuric acid mono-[2-(N′-[pyrrolidin-1-carbonyl]-hydrazinocarbonyl)-7-oxo-1,6-diaza-bicyclo[3.2.1]oct-6-yl]ester], the MIC with E. coli M 50 (setting [1]) is 16 µg/mL (≈ 42.4 µM); in the assay on E. coli NCTC 13351 (setting [2]) it was 32 µg/mL (≈ 84.8 µM); in the assay on E. coli 7 MP (setting [3]) it was 128 µg/mL (≈ 339 µM).
For `O=C(NNC(=O)[C@H]1CC[C@@H]2CN1C(=O)N2OS(=O)(=O)O)C1CCCCN1` (mixture of isomers) [Example 16, trans-sulfuric acid mono-[2-(N′—((RS)-piperidin-2-carbonyl)-hydrazinocarbonyl)-7-oxo-1,6-diaza-bicyclo[3.2.1]oct-6-yl]ester], in that order: 1 µg/mL (≈ 2.55 µM), 1 µg/mL (≈ 2.55 µM) and 2 µg/mL (≈ 5.11 µM).
`O=C(O)CON1C(=O)N2C[C@H]1CC[C@H]2C(=O)NNC(=O)[C@@H]1CCCNC1` [Example 4, trans-{7-oxo-2-[N′—((R)-piperidin-3-carbonyl)-hydrazinocarbonyl]-1,6-diaza-bicyclo[3.2.1]-oct-6-yloxy}-acetic acid]: the MIC in the assay on E. coli M 50 (setting [1]) stood at 8 µg/mL (≈ 21.7 µM); in the assay on E. coli NCTC 13351 (setting [2]) it was 8 µg/mL (≈ 21.7 µM); with E. coli 7 MP (setting [3]) it was 16 µg/mL (≈ 43.3 µM).
With `O=C(NNC(=O)N1CCOCC1)[C@H]1CC[C@@H]2CN1C(=O)N2OS(=O)(=O)O.[Na]` (relative stereo) [Example 47, Sodium salt of trans-sulfuric acid mono-[2-(N′-(morpholin-4-oxo-carbonyl)-hydrazinocarbonyl)-7-oxo-1,6-diaza-bicyclo[3.2.1]oct-6-yl]ester], the minimum inhibitory concentration (MIC) against E. coli M 50 (Table 3) was 64 µg/mL; in the assay with E. coli NCTC 13351 (setting [4]) it was 32 µg/mL; against E. coli 7 MP, 128 µg/mL.
For `CS(=O)(=O)N1CCC[C@H]1C(=O)NNC(=O)[C@H]1CC[C@@H]2CN1C(=O)N2OS(=O)(=O)[O-].[Na+]` (relative stereo) [Example 50, Sodium salt of trans-sulfuric acid mono-[2-(N′—[(S)-1-methanesulfonyl-pyrrolidin-2-carbonyl]-hydrazinocarbonyl)-7-oxo-1,6-diaza-bicyclo[3.2.1]oct-6-yl]ester], in that order: 16 µg/mL, 16 µg/mL and 32 µg/mL.
For the compound `O=C(NNC(=O)[C@H]1CC[C@@H]2CN1C(=O)N2OS(=O)(=O)O)[C@@H]1C[C@@H](O)CN1` (mixture of isomers) [Example 34, trans-sulfuric acid mono-[2-(N′-[(2S,4R)-4-hydroxy-pyrrolidin-2-carbonyl]-hydrazinocarbonyl)-7-oxo-1,6-diaza-bicyclo[3.2.1]oct-6-yl]ester], the MIC in the assay on E. coli M 50 (setting [1]) was found to be 2 µg/mL; in the assay with E. coli NCTC 13351 (setting [2]) it was 2 µg/mL; with E. coli 7 MP (setting [3]), 8 µg/mL.
On to `O=C(CCC1CCCCN1)NNC(=O)[C@H]1CC[C@@H]2CN1C(=O)N2OS(=O)(=O)O` (mixture of isomers) [Example 37, trans-sulfuric acid mono-[2-(N′—[(RS)-3-piperidin-2-yl-propionyl]-hydrazinocarbonyl)-7-oxo-1,6-diaza-bicyclo[3.2.1]oct-6-yl]ester], for which the minimum inhibitory concentration (MIC) amounted to 2 µg/mL (≈ 4.77 µM) in the assay on E. coli M 50 (setting [1]), 2 µg/mL (≈ 4.77 µM) with E. coli NCTC 13351 (setting [2]) and 4 µg/mL (≈ 9.54 µM) with E. coli 7 MP (setting [3]).
As for `NC(=O)CCC(N)C(=O)NNC(=O)[C@H]1CC[C@@H]2CN1C(=O)N2OS(=O)(=O)O` (relative stereo) [Example 24, trans-sulfuric acid mono-[2-(N′-(2-amino-4-carboxamido-butanoyl)-hydrazinocarbonyl)-7-oxo-1,6-diaza-bicyclo[3.2.1]oct-6-yl]ester], the MIC came to 1 µg/mL (≈ 2.45 µM) against E. coli M 50 (Table 3), 1 µg/mL (≈ 2.45 µM) with E. coli NCTC 13351 (setting [4]) and 4 µg/mL (≈ 9.79 µM) with E. coli 7 MP.
As to `CC(C)(C)OC(=O)NNC(=O)[C@H]1CC[C@@H]2CN1C(=O)N2OS(=O)(=O)[O-].[Na+]` (relative stereo) [Example 44, Sodium salt of trans-N′-(7-oxo-6-sulfooxy-1,6-diaza-bicyclo[3.2.1]octane-2-carboxylic acid)-hydrazinecarboxylic acid tert-butyl ester], the minimum inhibitory concentration (MIC) in the assay with E. coli M 50 (Table 3) is 32 µg/mL; against E. coli NCTC 13351 (setting [4]), 32 µg/mL; against E. coli 7 MP, 64 µg/mL.
Turning to `N[C@@H](CO)C(=O)NNC(=O)[C@H]1CC[C@@H]2CN1C(=O)N2OS(=O)(=O)O` (relative stereo) [Example 10], the MIC in the assay on E. coli M 50 (Table 3) is 8 µg/mL (≈ 21.8 µM); in the assay on E. coli NCTC 13351 (setting [4]), 1 µg/mL (≈ 2.72 µM); in the assay on E. coli 7 MP, 32 µg/mL (≈ 87.1 µM).
In the case of `NCCCCC(=O)NNC(=O)[C@H]1CC[C@@H]2CN1C(=O)N2OS(=O)(=O)O` (relative stereo) [Example 25, trans-sulfuric acid mono-[2-(N′-(5-amino-pentanoyl)-hydrazinocarbonyl)-7-oxo-1,6-diaza-bicyclo[3.2.1]oct-6-yl]ester], the MIC was found to be 1 µg/mL (≈ 2.64 µM) in the assay on E. coli M 50 (setting [1]), 1 µg/mL (≈ 2.64 µM) in the assay with E. coli NCTC 13351 (setting [2]) and 4 µg/mL (≈ 10.5 µM) with E. coli 7 MP (setting [3]).
Regarding `O=C(NNC(=O)[C@H]1CC[C@@H]2CN1C(=O)N2OS(=O)(=O)O)C1CCNC1` (mixture of isomers) [Example 32, trans-sulfuric acid mono-[2-(N′—[(RS)-pyrrolidin-3-carbonyl]-hydrazinocarbonyl)-7-oxo-1,6-diaza-bicyclo[3.2.1]oct-6-yl]ester], the results for the MIC in the assay with E. coli M 50 (setting [1]), in the assay on E. coli NCTC 13351 (setting [2]) and in the assay with E. coli 7 MP (setting [3]) were 0.5 µg/mL (≈ 1.32 µM), 0.5 µg/mL (≈ 1.32 µM) and 1 µg/mL (≈ 2.65 µM), respectively.
For the compound `NC(C(=O)NNC(=O)[C@H]1CC[C@@H]2CN1C(=O)N2OS(=O)(=O)O)c1ccccn1` (mixture of isomers) [Example 41, trans-sulfuric acid mono-[2-(N′—((RS)-1-amino-1-pyridin-2-yl-acetyl)-hydrazinocarbonyl)-7-oxo-1,6-diaza-bicyclo[3.2.1]oct-6-yl]ester], the MIC with E. coli M 50 (Table 3) was 4 µg/mL (≈ 9.65 µM); in the assay on E. coli NCTC 13351 (setting [4]), 4 µg/mL (≈ 9.65 µM); against E. coli 7 MP, 16 µg/mL (≈ 38.6 µM).
Take `NNC(=O)[C@H]1CC[C@@H]2CN1C(=O)N2OS(=O)(=O)O` (relative stereo) [Example 6, trans-sulfuric acid mono-[2-hydrazinocarbonyl-7-oxo-1,6-diaza-bicyclo[3.2.1]oct-6-yl]ester]: the figures for the minimal inhibitory concentration (MIC) in the assay on E. coli M 50 (setting [1]), with E. coli NCTC 13351 (setting [2]) and with E. coli 7 MP (setting [3]) were 64 µg/mL (≈ 228 µM), 32 µg/mL (≈ 114 µM) and 128 µg/mL (≈ 457 µM), respectively.
On the same counts, the results for `CC(N)CC(=O)NNC(=O)[C@H]1CC[C@@H]2CN1C(=O)N2OS(=O)(=O)O` (mixture of isomers) [Example 21, trans-sulfuric acid mono-[2-(N′—((RS)-3-amino-butanoyl)-hydrazinocarbonyl)-7-oxo-1,6-diaza-bicyclo[3.2.1]oct-6-yl]ester] are 1 µg/mL (≈ 2.74 µM), 1 µg/mL (≈ 2.74 µM) and 4 µg/mL (≈ 10.9 µM).
For `O=C(CC(=O)N1CCNCC1)NNC(=O)[C@H]1CC[C@@H]2CN1C(=O)N2OS(=O)(=O)O` (relative stereo) [Example 40, trans-sulfuric acid mono-[2-(N′-(3-oxo-3-piperazin-1-yl-propionyl)-hydrazinocarbonyl)-7-oxo-1,6-diaza-bicyclo[3.2.1]oct-6-yl]ester], the MIC with E. coli M 50 (setting [1]) was found to be 1 µg/mL (≈ 2.3 µM); in the assay on E. coli NCTC 13351 (setting [2]), 1 µg/mL (≈ 2.3 µM); with E. coli 7 MP (setting [3]), 4 µg/mL (≈ 9.21 µM).
Turning to `NC(C(=O)NNC(=O)[C@H]1CC[C@@H]2CN1C(=O)N2OS(=O)(=O)O)c1ccccc1` (mixture of isomers) [Example 20, trans-sulfuric acid mono-[2-(N′—((RS)-1-amino-1-phenyl-acetyl)-hydrazinocarbonyl)-7-oxo-1,6-diaza-bicyclo[3.2.1]oct-6-yl]ester], the figures for the MIC with E. coli M 50 (Table 3), against E. coli NCTC 13351 (setting [4]) and in the assay on E. coli 7 MP were 2 µg/mL (≈ 4.84 µM), 2 µg/mL (≈ 4.84 µM) and 8 µg/mL (≈ 19.4 µM), respectively.
Take `CC(C)(CN)C(=O)NNC(=O)[C@H]1CC[C@@H]2CN1C(=O)N2OS(=O)(=O)O` (relative stereo) [Example 22, trans-sulfuric acid mono-[2-(N′-(3-amino-2,2-dimethyl-propioyl)-hydrazinocarbonyl)-7-oxo-1,6-diaza-bicyclo[3.2.1]oct-6-yl]ester]: the results for the minimal inhibitory concentration (MIC) with E. coli M 50 (setting [1]), in the assay with E. coli NCTC 13351 (setting [2]) and in the assay on E. coli 7 MP (setting [3]) were 4 µg/mL (≈ 10.5 µM), 4 µg/mL (≈ 10.5 µM) and 8 µg/mL (≈ 21.1 µM), respectively.
Consider `O=C(NNC(=O)[C@H]1CC[C@@H]2CN1C(=O)N2OS(=O)(=O)O)[C@@H]1COCCN1` (mixture of isomers) [Example 39, trans-sulfuric acid mono-[2-(N′—((S)-morpholin-3-carbonyl)-hydrazinocarbonyl)-7-oxo-1,6-diaza-bicyclo[3.2.1]oct-6-yl]ester], for which the minimum inhibitory concentration (MIC) in the assay with E. coli M 50 (setting [1]) is 2 µg/mL; with E. coli NCTC 13351 (setting [2]) it was 4 µg/mL; in the assay on E. coli 7 MP (setting [3]), 8 µg/mL.
Take `O=C(NNC(=O)[C@H]1CCCCN1)[C@H]1CC[C@@H]2CN1C(=O)N2OS(=O)(=O)O` (mixture of isomers) [Example 18, trans-sulfuric acid mono-[2-(N′—((R)-piperidin-2-carbonyl)-hydrazinocarbonyl)-7-oxo-1,6-diaza-bicyclo[3.2.1]oct-6-yl]ester]: the MIC is 4 µg/mL in the assay on E. coli M 50 (setting [1]), 8 µg/mL with E. coli NCTC 13351 (setting [2]) and 32 µg/mL with E. coli 7 MP (setting [3]).
